Measurements: ChEMBL document CHEMBL3046098, “Effect of tropine derivatives, antimuscarinic agents, on the growth of Bombyx mori larvae” (1998)
Calls of active or inactive are those of the source. The rule behind the calls is not given here.

Assays:
Bombyx mori [1] = experiment: Insecticidal activity against Bombyx mori Shunrei x Shogetu fourth-instar larvae assessed as effect on larval growth at 100 ppm administered in diet relative to untreated control; type: functional, organism-based
Bombyx mori [2] = experiment: Effect on feeding in Bombyx mori Shunrei x Shogetu fourth-instar larvae assessed as change in quantity of excrement at 10 to 30 ppm administered in diet relative to untreated control; type: functional, organism-based
Bombyx mori [3] = experiment: Insecticidal activity against Bombyx mori Shunrei x Shogetu fourth-instar larvae assessed as incidence of prolongation of 4th ecdysis at 30 ppm administered in diet relative to untreated control; type: functional
Bombyx mori [4] = experiment: Insecticidal activity against Bombyx mori Shunrei x Shogetu fourth-instar larvae assessed as induction of delay in 4th ecdysis at 100 ug/larva applied daily through topical route (reference value: 4.3 +/- 0.48 days); type: functional
Bombyx mori [5] = experiment: Insecticidal activity against Bombyx mori Shunrei x Shogetu fourth-instar larva assessed as effect on larval molting at 160 ug/larvae upon topial application; type: functional, organism-based
Bombyx mori [6] = experiment: Insecticidal activity against Bombyx mori Shunrei x Shogetu fourth-instar larva assessed as effect on larval growth at 160 ug/larvae upon topial application; type: functional, organism-based
Bombyx mori [7] = experiment: Insecticidal activity against Bombyx mori Shunrei x Shogetu fourth-instar larvae assessed as induction of delay in 4th ecdysis at 10 to 30 ppm administered in diet relative to untreated control; type: functional

SMILES | Activity (Bombyx mori [1]) | Activity (Bombyx mori [2]) | Activity (Bombyx mori [3]) [%] | Time (Bombyx mori [4]) [days] | Activity (Bombyx mori [5]) | Activity (Bombyx mori [6]) | Time (Bombyx mori [7]) [days]
O=C(O)CC(c1ccccc1)c1ccccc1 | inactive |  |  |  |  |  | 
CN1C2CC[C@@H]1C[C@@H](OC(=O)C(C)(c1ccccc1)c1ccccc1)C2 (single isomer, unassigned) |  | inactive | 40 | 5.3 | inactive | inactive | 
CN1C2CC[C@@H]1C[C@@H](OC(=O)C(C)(C)C)C2 (single isomer, unassigned) |  |  |  |  | inactive | inactive | 
CN1C2CC[C@@H]1C[C@@H](OC(=O)C(c1ccccc1)c1ccccc1)C2 (single isomer, unassigned) |  |  |  |  | inactive | inactive | 
CN1C2CC[C@@H]1C[C@@H](OC(=O)CC(c1ccccc1)c1ccccc1)C2 (single isomer, unassigned) | inactive |  |  |  | inactive | inactive | 
CN1C2CC[C@@H]1C[C@@H](OC(=O)c1ccc(Cl)cc1Cl)C2 (single isomer, unassigned) |  |  |  |  | inactive | inactive | 
CN1C2CC[C@@H]1C[C@@H](OC(=O)c1ccc3ccccc3c1)C2 (single isomer, unassigned) |  |  |  |  | inactive | inactive | 
CN1[C@@H]2CC[C@H]1C[C@@H](OC(=O)C(CO)c1ccccc1)C2 (stereo not given in full) [ATROPINE] |  | inactive |  | 4.7 |  |  | 1
